From PubChem BioAssay AID1745844 (Carcinogenic Potency Database (CPDB), 2022)
The source made the active and inactive calls. No rule for the calls is given here.

System: rodent lifetime carcinogenesis bioassay, tumor incidence TD50
Experiment: carcinogenic potency in animals, long-term in vivo studies, CPDB compilation (AID 1745844)

Compound `ClCC(Cl)Cl` has a TD50 (mouse, strain B6C3F1, females, by gavage, site: adrenal gland + liver, lesion: pheochromocytoma + hepatocellular carcinoma, dosed 78 weeks, study length 90 weeks) of 47.6 mg/kg/day, a TD50 (mouse, strain B6C3F1, females, by gavage, site: adrenal gland, lesion: pheochromocytoma, dosed 78 weeks, study length 90 weeks) of 248 mg/kg/day and a TD50 (mouse, strain B6C3F1, females, by gavage, site: any site (literature study), lesion: several types, types named in the paper, dosed 78 weeks, study length 90 weeks) of 52.9 mg/kg/day. It also gave a TD50 (mouse, strain B6C3F1, females, by gavage, site: liver, lesion: hepatocellular adenoma + hepatocellular carcinoma + neoplastic nodule, dosed 78 weeks, study length 90 weeks) of 47.6 mg/kg/day, a TD50 (mouse, strain B6C3F1, females, by gavage, site: liver, lesion: hepatocellular carcinoma, dosed 78 weeks, study length 90 weeks) of 47.6 mg/kg/day and a TD50 (mouse, strain B6C3F1, females, by gavage, site: lung, lesion: alveolar/bronchiolar adenoma + alveolar/bronchiolar carcinoma, dosed 78 weeks, study length 90 weeks) of 787 mg/kg/day. The TD50 (mouse, strain B6C3F1, males, by gavage, site: adrenal gland + liver, lesion: pheochromocytoma + hepatocellular carcinoma, dosed 78 weeks, study length 90 weeks) was 65 mg/kg/day, the TD50 (mouse, strain B6C3F1, males, by gavage, site: adrenal gland, lesion: pheochromocytoma, dosed 78 weeks, study length 90 weeks) was 588 mg/kg/day and the TD50 (mouse, strain B6C3F1, males, by gavage, site: any site (literature study), lesion: several types, types named in the paper, dosed 78 weeks, study length 90 weeks) was 79.5 mg/kg/day. It also gave a TD50 (mouse, strain B6C3F1, males, by gavage, site: liver, lesion: hepatocellular adenoma + hepatocellular carcinoma + neoplastic nodule, dosed 78 weeks, study length 90 weeks) of 65 mg/kg/day, a TD50 (mouse, strain B6C3F1, males, by gavage, site: liver, lesion: hepatocellular carcinoma, dosed 78 weeks, study length 90 weeks) of 65 mg/kg/day and a TD50 (mouse, strain B6C3F1, males, by gavage, site: lung, lesion: alveolar/bronchiolar adenoma + alveolar/bronchiolar carcinoma, dosed 78 weeks, study length 90 weeks) of 1560 mg/kg/day. For the same compound, the carcinogen call (rat, strain Osborne-Mendel, females, by gavage, site: any site (literature study), lesion: several types, types named in the paper, dosed 78 weeks, study length 112 weeks) was “negative (inactive)”, the TD50 (rat, strain Osborne-Mendel, females, by gavage, site: liver, lesion: hepatocellular adenoma + hepatocellular carcinoma + neoplastic nodule, dosed 78 weeks, study length 112 weeks) was 771 mg/kg/day and the carcinogen call (rat, strain Osborne-Mendel, males, by gavage, site: any site (literature study), lesion: several types, types named in the paper, dosed 78 weeks, study length 112 weeks) was “negative (inactive)”.
In the case of `C=C1CC[C@H](O)C/C1=C/C=C1\CCC[C@]2(C)[C@@H]([C@H](C)CC[C@@H](O)C(C)(C)O)CC[C@@H]12`, the TD50 (rat, strain Slc-Wistar, males, in feed, site: adrenal medulla, lesion: pheochromocytoma, dosed 57 weeks, study length 57 weeks) is reported as 0.803 mg/kg/day and the carcinogen call (rat, strain Slc-Wistar, males, in feed, site: stomach, glandular, lesion: adenocarcinoma, dosed 57 weeks, study length 57 weeks) is reported as “negative (inactive)”.
`O=C(O[C@@H]1Cc2c(O)cc(O)cc2O[C@@H]1c1cc(O)c(O)c(O)c1)c1cc(O)c(O)c(O)c1` was tested, and the carcinogen call (mouse, strain C3H/HeN, males, in drinking water, site: liver, lesion: several types, types named in the paper, dosed 58 weeks, study length 58 weeks) was “negative (inactive)”.
